Laboratory results: paper PMC10319809, “Chronic UCN2 treatment desensitizes CRHR2 and improves insulin sensitivity” (Nature Communications, 2023)
Where “and” joins values, the source holds several entries; their conditions need not be identical. Identical values can stand only once. Where no end group is shown, it is not given here.

What was measured:
mice = assay: Antisauvagine-30 pre-treatment, oGTT with UCN2; type: in vivo, mouse
Procedure: For glucose tolerance tests (GTTs), animals were fasted for 8 h with ad libitum access to water. Fasting glucose measurements were taken before 300ug/kg IP dose of ASG30 (Tocris Biosciences, Bristol, UK, Catalog No: 2071) or an equivalent volume of sterile distilled water. 10 min later animals received a 1 mg/kg IP dose of UCN2 or an equivalent volume of saline co-dosed with 300ug/kg of ASG30 or an equivalent volume of water. 20 min later animals received a […] oral glucose dose. Blood glucose measurements were taken via tail nick using the AlphaTRAK 2 Glucose Monitoring System (Zoetis, Parsippany-Troy Hills, NJ) at 10, 30, 60, and 120 min after dose.
(§1) Blood Glucose (mg/dL) +Veh +Veh
(§2) Supplementary Fig. 1. Antisauvagine-30 Blunts Effects of UCN2 on Glucose Uptake.
(§3) (A) Blood glucose during oGTT. Oral glucose gavage occurred at t = 0. At t = -30 animals were
(§4) treated with either Antisauvagine-30 (ASG30) or water. At t = -20 animals were treated with
(§5) either Saline, UCN2 alone, ASG30 alone, or ASG30 and UCN2 together. Mean±SD, n = 6.
(§6) Significance was assessed by one-way ANOVA and Tukey HSD.
(§7) (B) [3H]2-Deoxyglucose uptake by the soleus muscle in insulin-treated or untreated mice, following
(§8) pre-treatment of saline, UCN2, or ASG30 and UCN2. Mean±SD, n = 6.
(§9) Significance was assessed by one-way ANOVA and Tukey HSD. * P < 0.05, ** P < 0.01, *** P < […]

soleus muscle = assay: Antisauvagine-30 pre-treatment, [3H]2DG uptake in soleus muscle; type: in vivo, mouse; details: ASG30 300 ug/kg IP pre-treatment, UCN2 1 mg/kg, insulin 0.75 IU/kg
Procedure: To determine 2-deoxy-glucose (2DG) uptake in soleus muscle, mice were fasted for 5 h and anaesthetized with isoflurane. Animals were injected IP with 300 ug/kg of ASG30 or an equivalent volume of water. […] 15 min following 2DG administration, blood was collected via intracardiac stick and soleus and gastrocnemius muscles were dissected and snap frozen in liquid nitrogen. Samples were stored at −80 C until processing. Blood was treated with BaOH2 and ZnSO4 and after centrifugation, radioactivity was determined via liquid scintillation counting (Tri-Carb 5110TR, PerkinElmer, Waltham, MA). Tissue was homogenized and mixed with water or BaOH2 and ZnSO4 to determine total and unphosphorylated 2DG content.
as §1, §2, §3, §4, §5, §6, §7, §8, §9

[1] = system: CRHR2-expressing HEK293 cells; assay: FAM-UCN2 internalization, fluorescence and live cell imaging of HEK293 cells; type: cell-based, human; details: HEK293 cells with or without CRHR2, over 24 h
mouse soleus muscle = assay: Ex vivo soleus muscle [3H]2-deoxyglucose uptake; details: individual muscles
Procedure: Soleus muscle was removed from fed animals anesthetized by an intraperitoneal injection of pentobarbital (10 mg/100 g body weight). Dissected soleus muscles were suspended at 5 mN of tension in incubation chambers (Model 610/820 M, Danish Myo-Technology, Denmark) containing Krebs-Ringer-Buffer supplemented with 0.1% BSA, 2 mM pyruvate and 8 mM Mannitol. During the entire incubation period the KRB was maintained at 30 °C and oxygenated with 95% O2 and 5% CO2. Following 10 min of pre-incubation muscles were incubated in Krebs buffer +/− 100 nM (−7.0 log[M]) UCN2. At the next time point, 30 min later, muscles were placed in baths containing Krebs buffer +/− 100 nM (−7.0 [M]) UCN2. At the next time point, 15 min later, muscles were placed in baths containing Krebs buffer +/− 100 nM (−7.0 log[M]) UCN2 + /− 60 nM Insulin (Actrapid, Novo Nordisk, Bagsvaerd, Denmark) for 15 min. For the ex vivo glucose uptake studies, 1 mM [^3H]2-deoxyglucose (Perkin-Elmer) and 7 mM [^14C]mannitol (Perkin-Elmer) was also added at this time. Muscles that were in saline in the first bath, saline in the second bath, and saline in the third bath were assigned to the SSS group. Muscles that were in saline in the first bath, saline in the second bath, and UCN2 in the third bath were assigned to the SSU group. Muscles that were in UCN2 in the first bath, saline in the second bath, and UCN2 in the third bath were assigned to the USU group. Muscles that were in saline in the first bath, UCN2 in the second bath, and UCN2 in the third bath were assigned to the SUU group. Following incubation, muscles were harvested, washed in ice-cold KRB and immediately frozen in liquid nitrogen.
Glucose uptake was determined in muscle protein lysates by assessing the accumulation of [^3H]2-deoxyglucose with the use of [^14C]mannitol to correct for the extracellular space. Radioactivity was measured by liquid scintillation counting.

[2] = target: T1, unmodified CRHR2a (corticotropin-releasing hormone receptor 2, alpha isoform) (human) (UniProt Q13324)
T1 sequence: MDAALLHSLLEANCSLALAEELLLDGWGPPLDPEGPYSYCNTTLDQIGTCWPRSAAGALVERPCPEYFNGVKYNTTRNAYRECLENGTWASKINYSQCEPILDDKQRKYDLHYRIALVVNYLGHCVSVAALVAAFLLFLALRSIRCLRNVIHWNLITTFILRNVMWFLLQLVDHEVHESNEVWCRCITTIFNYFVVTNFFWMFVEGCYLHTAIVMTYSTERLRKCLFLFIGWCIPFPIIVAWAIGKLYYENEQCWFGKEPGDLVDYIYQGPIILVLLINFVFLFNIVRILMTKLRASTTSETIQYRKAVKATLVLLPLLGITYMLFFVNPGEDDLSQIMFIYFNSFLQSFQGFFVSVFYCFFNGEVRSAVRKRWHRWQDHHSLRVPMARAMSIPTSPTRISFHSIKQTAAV

Antisauvagine-30 [ASG30]
glucose tolerance in UCN2-treated animals during oGTT (mice; ASG30 300ug/kg IP pre-treatment): improved glucose tolerance
effect on UCN2-induced blood glucose (mice; ASG30 300ug/kg IP pre-treatment and co-dose with 1 mg/kg UCN2): significantly blunted UCN2’s effects on blood glucose
insulin-mediated glucose uptake in soleus muscle in vivo (soleus muscle): restored insulin-mediated glucose uptake

FAM-UCN2: Fluorescently labeled UCN2 (IVLSLDVPIGLLQILLEQARARAAREQATTNARILARVGHC; ends and bridges not checked; also: FAM label, position not given here)
internalization of the labeled ligand [1]: internalized in a receptor-dependent manner

Insulin
2DG Uptake (mouse soleus muscle; Fig 6C, Vehicle +Insulin): 2.36 µmol/g/h and 3.79 µmol/g/h and 4.38 µmol/g/h and 3.22 µmol/g/h and 3.39 µmol/g/h
2DG Uptake (mouse soleus muscle; Fig 6D, Insulin-SSS): 3.619 µmol/g/h and 3.768 µmol/g/h and 3.935 µmol/g/h

IVLSLDVPIGLLQILLEQARARAAREQATTNARILARVGHC (ligand) [Urocortin 2 (UCN2)]
Gs activation, ebBRET biosensor (Gas-RlucII leaving the plasma membrane), HEK293 cells with increasing UCN2; EC50 of UCN2 [2]: 0.1 nM
β-Arrestin 1 recruitment, ebBRET effector membrane translocation assay, HEK293 cells with increasing UCN2; EC50 of UCN2 [2]: 6.5 nM
β-Arrestin 2 recruitment, ebBRET effector membrane translocation assay, HEK293 cells with increasing UCN2; EC50 of UCN2 [2]: 6.1 nM
